Assay results as given in patent US10435405B2, “Pyrazolopyridine compounds and uses thereof” (Incyte Corporation, priority 2016, dated 2019).

Target: HPK1 (Homo sapiens (Human), UniProt Q92918)
Experiment: HPK1 Kinase Binding Assay
Experimental: A stock solution of 1 mM test compound was prepared in DMSO. The compound plate was prepared by 3-fold and 11-point serial dilutions. 0.1 μL of the compound in DMSO was transferred from the compound plate to the white 384 well polystyrene plates. The assay buffer contained 50 mM HEPES, pH 7.5, 0.01% Tween-20, 5 mM MgCl2, 0.01% BSA, and 5 mM DTT. 5 μl of 4 nM active HPK1 (SignalChem M23-11G) prepared in the buffer was added to the plate. The enzyme concentration given was based on the given stock concentration reported by the vender. 5 μl of 18 nM tracer 222 (ThermoFisher PV6121) and 4 nM LanthaScreen Eu-Anti GST antibody (ThermoFisher PV5595) were added. After one hour incubation at 25° C., the plates were read on a PHERAstar FS plate reader (BMG Labtech). Ki values were determined.

Chain of HPK1 (Q92918 1-346): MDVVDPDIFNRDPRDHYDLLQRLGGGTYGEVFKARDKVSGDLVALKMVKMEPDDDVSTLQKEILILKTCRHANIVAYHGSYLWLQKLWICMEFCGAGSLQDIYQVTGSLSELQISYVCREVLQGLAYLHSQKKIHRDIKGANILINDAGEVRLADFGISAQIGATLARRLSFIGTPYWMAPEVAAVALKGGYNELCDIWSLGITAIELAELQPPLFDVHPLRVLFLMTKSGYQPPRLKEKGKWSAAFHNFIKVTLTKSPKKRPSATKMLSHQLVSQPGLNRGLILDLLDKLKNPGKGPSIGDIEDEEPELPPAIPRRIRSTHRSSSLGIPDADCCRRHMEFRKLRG

Structure (SMILES) | Ki [µM]
Cc1cc(C2CCCN2)cc(F)c1-c1cc2c(-c3cnn(C)c3)n[nH]c2cn1 (single isomer, unassigned) [Example 171, 5-(2-Fluoro-6-methyl-4-(pyrrolidin-2-yl)phenyl)-3-(1-methyl-1H-pyrazol-4-yl)-1H-pyrazolo[3,4-c]pyridine] | ≤ 0.1
Cc1cc(C2CCCCN2)cc(F)c1-c1cc2c(-c3cnn(C)c3)n[nH]c2cn1 (single isomer, unassigned) [Example 174, 5-(2-Fluoro-6-methyl-4-(piperidin-2-yl)phenyl)-3-(1-methyl-1H-pyrazol-4-yl)-1H-pyrazolo[3,4-c]pyridine] | ≤ 0.1
CNC(C)c1cc(C)c(-c2cc3c(-c4cnn(C)c4)n[nH]c3cn2)c(F)c1 (single isomer, unassigned) [Example 189, 1-(3-Fluoro-5-methyl-4-(3-(1-methyl-1H-pyrazol-4-yl)-1H-pyrazolo[3,4-c]pyridin-5-yl)phenyl)-N-methylethanamine] | ≤ 0.1
Cn1cc(-c2n[nH]c3cnc(-c4c(F)cc(C5CCCN5)cc4C(F)(F)F)cc23)cn1 (single isomer, unassigned) [Example 226, 5-(2-Fluoro-4-(pyrrolidin-2-yl)-6-(trifluoromethyl)phenyl)-3-(1-methyl-1H-pyrazol-4-yl)-1H-pyrazolo[3,4-c]pyridine] | ≤ 0.1
Cn1cc(-c2n[nH]c3cnc(-c4c(F)cc(C5CCCN5)cc4C(F)(F)F)cc23)cn1 (single isomer, unassigned) [Example 227, 5-(2-Fluoro-4-(pyrrolidin-2-yl)-6-(trifluoromethyl)phenyl)-3-(1-methyl-1H-pyrazol-4-yl)-1H-pyrazolo[3,4-c]pyridine] | ≤ 0.1
CNC(C)c1cc(C)c(-c2cc3c(-c4cnn(C5CC5)c4)n[nH]c3cn2)c(F)c1 (single isomer, unassigned) [Example 228, 1-(4-(3-(1-Cyclopropyl-1H-pyrazol-4-yl)-1H-pyrazolo[3,4-c]pyridin-5-yl)-3-fluoro-5-methylphenyl)-N-methylethanamine] | ≤ 0.1
CNC(C)c1cc(C)c(-c2cc3c(-c4cnn(C5CC5)c4)n[nH]c3cn2)c(F)c1 (single isomer, unassigned) [Example 229, 1-(4-(3-(1-Cyclopropyl-1H-pyrazol-4-yl)-1H-pyrazolo[3,4-c]pyridin-5-yl)-3-fluoro-5-methylphenyl)-N-methylethanamine] | ≤ 0.1
CCn1cc(-c2n[nH]c3cnc(-c4c(C)cc(C5CCCCN5)cc4F)cc23)cn1 (single isomer, unassigned) [Example 230, 3-(1-Ethyl-1H-pyrazol-4-yl)-5-(2-fluoro-6-methyl-4-(piperidin-2-yl)phenyl)-1H-pyrazolo[3,4-c]pyridine] | ≤ 0.1
CCn1cc(-c2n[nH]c3cnc(-c4c(C)cc(C5CCCCN5)cc4F)cc23)cn1 (single isomer, unassigned) [Example 231, 3-(1-Ethyl-1H-pyrazol-4-yl)-5-(2-fluoro-6-methyl-4-(piperidin-2-yl)phenyl)-1H-pyrazolo[3,4-c]pyridine] | ≤ 0.1
Cc1cc(C2CCCCN2)cc(F)c1-c1cc2c(-c3cnn(C4CC4)c3)n[nH]c2cn1 (single isomer, unassigned) [Example 232, 3-(1-Cyclopropyl-1H-pyrazol-4-yl)-5-(2-fluoro-6-methyl-4-(piperidin-2-yl)phenyl)-1H-pyrazolo[3,4-c]pyridine] | ≤ 0.1
Cc1cc(C2CCCCN2)cc(F)c1-c1cc2c(-c3cnn(C4CC4)c3)n[nH]c2cn1 (single isomer, unassigned) [Example 233, 3-(1-Cyclopropyl-1H-pyrazol-4-yl)-5-(2-fluoro-6-methyl-4-(piperidin-2-yl)phenyl)-1H-pyrazolo[3,4-c]pyridine] | ≤ 0.1
CNC1CCc2c1cc(C)c(-c1cc3c(-c4cnn(C)c4)n[nH]c3cn1)c2F (single isomer, unassigned) [Example 238, 4-Fluoro-N,6-dimethyl-5-(3-(1-methyl-1H-pyrazol-4-yl)-1H-pyrazolo[3,4-c]pyridin-5-yl)-2,3-dihydro-1H-inden-1-amine] | ≤ 0.1
CNC1CCc2c1cc(C)c(-c1cc3c(-c4cnn(C)c4)n[nH]c3cn1)c2F (single isomer, unassigned) [Example 239, 4-Fluoro-N,6-dimethyl-5-(3-(1-methyl-1H-pyrazol-4-yl)-1H-pyrazolo[3,4-c]pyridin-5-yl)-2,3-dihydro-1H-inden-1-amine] | ≤ 0.1
COc1cccc(F)c1-c1cc2c(NC(=O)c3ccccc3)n[nH]c2cn1 [Example 1, N-(5-(2-Fluoro-6-methoxyphenyl)-1H-pyrazolo[3,4-c]pyridin-3-yl)benzamide] | ≤ 0.1
COc1cccc(F)c1-c1cc2c(NC(=O)c3ccc(C)cc3)n[nH]c2cn1 [Example 2, N-(5-(2-Fluoro-6-methoxyphenyl)-1H-pyrazolo[3,4-c]pyridin-3-yl)-4-methylbenzamide] | ≤ 0.1
COc1cccc(F)c1-c1cc2c(NC(=O)c3ccc(Br)cc3)n[nH]c2cn1 [Example 3, 4-Bromo-N-(5-(2-fluoro-6-methoxyphenyl)-1H-pyrazolo[3,4-c]pyridin-3-yl)benzamide] | ≤ 0.1
COc1cccc(F)c1-c1cc2c(NC(=O)c3cccc(Br)c3)n[nH]c2cn1 [Example 4, 3-Bromo-N-(5-(2-fluoro-6-methoxyphenyl)-1H-pyrazolo[3,4-c]pyridin-3-yl)benzamide] | ≤ 0.1

Structure (SMILES) | Ki [µM]
COc1cccc(F)c1-c1cc2c(NC(=O)c3ccc(F)cc3)n[nH]c2cn1 [Example 5, 4-Fluoro-N-(5-(2-fluoro-6-methoxyphenyl)-1H-pyrazolo[3,4-c]pyridin-3-yl)benzamide] | ≤ 0.1
COc1cccc(F)c1-c1cc2c(NC(=O)c3cccc(F)c3)n[nH]c2cn1 [Example 6, 3-Fluoro-N-(5-(2-fluoro-6-methoxyphenyl)-1H-pyrazolo[3,4-c]pyridin-3-yl)benzamide] | ≤ 0.1
COc1cccc(F)c1-c1cc2c(NC(=O)c3cccc(C#N)c3)n[nH]c2cn1 [Example 7, 3-Cyano-N-(5-(2-fluoro-6-methoxyphenyl)-1H-pyrazolo[3,4-c]pyridin-3-yl)benzamide] | ≤ 0.1
CCc1ccc(C(=O)Nc2n[nH]c3cnc(-c4c(F)cccc4OC)cc23)cc1 [Example 8, 4-Ethyl-N-(5-(2-fluoro-6-methoxyphenyl)-1H-pyrazolo[3,4-c]pyridin-3-yl)benzamide] | ≤ 0.1
COc1cccc(C(=O)Nc2n[nH]c3cnc(-c4c(F)cccc4OC)cc23)c1 [Example 9, N-(5-(2-Fluoro-6-methoxyphenyl)-1H-pyrazolo[3,4-c]pyridin-3-yl)-3-methoxybenzamide] | ≤ 0.1
COc1cccc(F)c1-c1cc2c(NC(=O)c3ccc(F)c(C)c3)n[nH]c2cn1 [Example 10, 4-Fluoro-N-(5-(2-fluoro-6-methoxyphenyl)-1H-pyrazolo[3,4-c]pyridin-3-yl)-3-methylbenzamide] | ≤ 0.1
COc1cccc(F)c1-c1cc2c(NC(=O)c3cc(F)cc(F)c3)n[nH]c2cn1 [Example 11, 3,5-Difluoro-N-(5-(2-fluoro-6-methoxyphenyl)-1H-pyrazolo[3,4-c]pyridin-3-yl)benzamide] | ≤ 0.1
COc1cccc(F)c1-c1cc2c(NC(=O)c3ccc(F)c(F)c3)n[nH]c2cn1 [Example 12, 3,4-Difluoro-N-(5-(2-fluoro-6-methoxyphenyl)-1H-pyrazolo[3,4-c]pyridin-3-yl)benzamide] | ≤ 0.1
COc1cccc(F)c1-c1cc2c(NC(=O)c3ccc4c(c3)OCO4)n[nH]c2cn1 [Example 13, N-(5-(2-Fluoro-6-methoxyphenyl)-1H-pyrazolo[3,4-c]pyridin-3-yl)benzo[d][1,3]dioxole-5-carboxamide] | ≤ 0.1
COc1cccc(F)c1-c1cc2c(NC(=O)c3cnn(C)c3)n[nH]c2cn1 [Example 14, N-(5-(2-Fluoro-6-methoxyphenyl)-1H-pyrazolo[3,4-c]pyridin-3-yl)-1-methyl-1H-pyrazole-4-carboxamide] | ≤ 0.1
COc1cccc(F)c1-c1cc2c(NC(=O)c3ccn(C)n3)n[nH]c2cn1 [Example 15, N-(5-(2-Fluoro-6-methoxyphenyl)-1H-pyrazolo[3,4-c]pyridin-3-yl)-1-methyl-1H-pyrazole-3-carboxamide] | ≤ 0.1
COc1cccc(F)c1-c1cc2c(NC(=O)c3cccc(N4CCOCC4)c3)n[nH]c2cn1 [Example 16, N-(5-(2-Fluoro-6-methoxyphenyl)-1H-pyrazolo[3,4-c]pyridin-3-yl)-3-morpholinobenzamide] | ≤ 0.1
COc1cccc(F)c1-c1cc2c(NC(=O)c3cccc(N4CCNC(=O)C4)c3)n[nH]c2cn1 [Example 17, N-(5-(2-Fluoro-6-methoxyphenyl)-1H-pyrazolo[3,4-c]pyridin-3-yl)-3-(3-oxopiperazin-1-yl)benzamide] | ≤ 0.1
COc1cccc(F)c1-c1cc2c(NC(=O)c3cccc(N4CCN(C)CC4)c3)n[nH]c2cn1 [Example 18, N-(5-(2-Fluoro-6-methoxyphenyl)-1H-pyrazolo[3,4-c]pyridin-3-yl)-3-(4-methylpiperazin-1-yl)benzamide] | ≤ 0.1
COc1cccc(F)c1-c1cc2c(NC(=O)c3cccc(N4CCN(C)C(=O)C4)c3)n[nH]c2cn1 [Example 19, N-(5-(2-Fluoro-6-methoxyphenyl)-1H-pyrazolo[3,4-c]pyridin-3-yl)-3-(4-methyl-3-oxopiperazin-1-yl)benzamide] | ≤ 0.1
CCN1CCN(c2cccc(C(=O)Nc3n[nH]c4cnc(-c5c(F)cccc5OC)cc34)c2)CC1 [Example 20, 3-(4-Ethylpiperazin-1-yl)-N-(5-(2-fluoro-6-methoxyphenyl)-1H-pyrazolo[3,4-c]pyridin-3-yl)benzamide] | ≤ 0.1
